Experimental findings from the NIST ThermoML archive (doi:10.1016/j.jct.2016.12.031) are described below.

Structures are written as SMILES. Numbers after ± are expanded uncertainties.

For the data set the following is noted: Crystal; visual observation.

Regarding `CN(C)c1ccc(C(=C2C=CC(=[N+](C)C)C=C2)c2ccccc2)cc1.CN(C)c1ccc(C(=C2C=CC(=[N+](C)C)C=C2)c2ccccc2)cc1.O=C(O)C(=O)O.O=C([O-])C(=O)O.O=C([O-])C(=O)O` [Malachite green oxalate], the Normal melting temperature is 160.00 ± 1.1 °C. In the case of `Cc1cc2nc3cc(C)c(N)cc3[n+](-c3ccccc3)c2cc1N.[Cl-]` [Safranine O] it was 300.00 ± 1.1 °C.
